Reference: US20250388571A1, “AMP-ACTIVATED PROTEIN KINASE MODULATOR COMPOUNDS AND USES THEREOF” (Biolexis Therapeutics, Inc., priority 2024, published 2025)
Entries after “also recorded” stand apart in the source; their conditions may differ. Like-named read-outs stand apart in the source and are kept apart here.

Tests used:
[1] = test system: AMPK signal pathway in HSKM cells; assay: Western blot assay, HSKM cells; type: cell-based, human
HSKM cells = assay: CyQUANT Cytotoxicity Assay (G6PD assay), HSKM; conditions: treated 2 hours
Experimental: The CyQUANT Cytotoxicity Assay (Thermofisher, cat no: V23111) was used to detect damaged and dying cells by means of their release of glucose 6-phosphate dehydrogenase into the surrounding medium. Cells were plated in a 96-well microplate (500-25,000 cells/well in a 50-μL volume). Three sets of triplicate wells were reserved for the following controls: a no-cell control (medium alone), untreated cells, and completely lysed cells. Cells were starved for 2 h and then add the indicated AMPK activators (50 μL) to the experimental wells and incubate for 2 hours, 50 μL of 2× reaction mixture was added to each well. 1 μL of 100× Cell-Lysis buffer was added to the completely lysed control wells only. Cells were incubated at 37° C. for 10-30 minutes. Fluorescence was measured (excitation 530-560 nm, emission 580-600 nm) at 5-minute intervals to determine the optimal time point for the experiment.
To text toxicity, after differentiation of human skeletal muscle cells, HSKM were starved with DMEM medium without FBS/glucose for 2 hours. […] The resultant reaction mixture was then assayed for glucose 6-phosphate dehydrogenase release. An untreated control sample and completely lysed cells were detected for comparison. The fluorescence was measured in a microplate reader (excitation/emission ˜530/590 nm).

high fat diet mice = conditions: for % Body (percentage change in body weight): up to day 36
[2] = test system: Human white preadipocyte (HWP) cells; assay: Glucose uptake assay, human white preadipocyte cells; type: cell-based
Experimental: (§1) FIGS. 5-8 show results for glucose update assays in Human white preadipocyte (HWP) cells (Promocell, cat. No. C-12735) when treated with compound I-11 (FIG. 5), compound I-7 (FIG. 6), MK-8722 (FIG. 7), and PF-06409577 (FIG. 8). HWP cells (subcutaneous upper arm of obese patient) were starved for 3 hours in DMEM without FBS, treated with the components noted above in […] DMEM without FBS/glucose for 1 hour, and glucose uptake was detected using a glucose uptake kit (Promega). […] The bars show (from left to right) concentrations of 100 μM, 33 μM, 11 μM, 3.7 μM, 1.23 μM, 0.41 μM, 0.14 μM, 0.045 μM, 0.015 μM, 0.005 μM, 0 μM, and insulin.
as §1, with “9-12” for “5-8”, “9),” for “5),”, “10),” for “6),”, “11),” for “7),”, “12).” for “8).”, “(abdomen cells)” for “(subcutaneous upper arm of obese patient)”
(§2) Human skeletal myoblasts were obtained (Thermofisher; BYU) and cultured in DMEM/F12 medium with 10% FBS. For differentiation, 2% horse serum low glucose DMEM medium was employed for 72 hours. Human cardiomyocytes cells (HCM cells; Promocell) were cultured in myocyte growth medium (Promocell). Human preadipocyte HWP-c cells (Promocell) were obtained from upper arm of diabetic II donor. Human preadipocyte HWP-c cells (Promocell) were obtained from abdomen of diabetic II donor. For differentiating human preadipocytes, cells were cultured in preadipocyte growth medium to total confluency stage. The growth medium was replaced with preadipocyte differentiation medium for 72 hours, then changed to PromoCell adipocyte nutrition medium to complete the differentiation process. THLE-2 cells were cultured in BEGM from Lonza/Clonetics Corporation, Walkersville, MD 21793 (BEGM Bullet Kit; CC3170). HepG2, L6 and C2Cl2 cells were cultured in EMEM medium.
(§3) After differentiation myoblasts, preadipocyte cells were starved by removing the medium and adding 100 μL DMEM without serum. The medium was then replaced with 100 μL DMEM±1 μM insulin at indicated concentration of representative compounds without serum or glucose. The cells were then incubated for 1 hour at 37° C. in 5% CO2. The cells were then removed from the medium and 50 μL of 0.1 mM 2DG in PBS was added. Cells were incubated for 30 minutes at 25° C. 25 μL of Stop Buffer was added and samples were mixed. 25 μL of Neutralization Buffer was then added and mixed. 100 μL of 2DG6P Detection Reagent was then added and mixed. Samples were then incubated for 1 hour at 25° C. Luminescence was then recorded with 0.3-1 second integration on a luminometer.

[3] = Plasma, liver and adipose tissue concentration in db/db mice, day 36; type: in vivo, mice (Mus musculus; db/db C57BL/6); conditions: post 4 hours dosing on day 36; for concentration at 4 h: male, db/db C57BL/6, mouse, oral
Experimental: A mixture of DMSO (2%), Cremophor EL (2%), Tween 80 (1%), 0.5% methyl cellulose (35%), and water (60%) was used for the formulation. Doses were prepared at concentrations of 30 and 50 mg/kg. Administration was oral, daily for 36 days. Male mice (Mus musculus; db/db C57BL/6) aged 8-9 weeks and weighing less than or equal to 40 grams were used for the study. Groups were assigned 10 mice per group.
G2 and G3 plasma, liver and adipose tissue samples were collected post 4 hours dosing on day 36.

[4] = test system: AMPK signaling in human liver cells; assay: Western blot assay, human liver cells (Biological Example 1); type: cell-based
Experimental: After treatment, cells were analyzed using a glucose uptake assay and a western blot assay for human skeletal myoblasts, human cardiomyocytes cells, human hepatocytes-THLE-2 cells, preadipocyte HWP-c cells.
Samples for immunoblotting studies were prepared for electrophoresis by adding in a final concentration of 1× Laemmli loading buffer (supplemented with 5% 2-mercaptoethanol). Samples were then electrophorized by SDS-PAGE (4-15% or 4-20% Criterion TGX Precast gel, Bio-Rad) at a constant voltage within the range of 140V. Proteins were transferred to a nitrocellulose membrane (Bio-Rad) using the Trans-Blot Turbo transfer system (Bio-Rad). Membranes were blocked with 5% BSA in TBST for a minimum of 1 hour at room temperature before incubating with the following primary antibodies: • Phospho-AMPKα (Thr172) (40H9) Rabbit mAb (CST, cat no: 2535S), • AMPKα Antibody (CST, cat no: 2532S) • Phospho-Raptor (Ser792) Antibody (CST, cat no: 2083S) • Raptor (24C12) Rabbit mAb (CST, cat no: 2280S) • Phospho-Acetyl-CoA Carboxylase (Ser79) Antibody (CST, cat no: 3661S) • Acetyl-CoA Carboxylase Antibody (CST, cat no: 3662S) • AMPKα2 Antibody (CST, cat no: 2757S) • AMPKβ1 antibody (CST, cat no: 12063) • AMPKβ2 Antibody (CST, CST, cat no: 4148S) • AMPKγ3 Antibody (CST, cat no: 2550S).

[5] = test system: human hepatocytes-THLE-2 cells; assay: Glucose uptake assay, THLE-2 cells; type: cell-based
Experimental: FIGS. 13-16 show results for glucose update assays in THLE-2 cells (ATCC, cat. No. CRL-2706) when treated with compound I-11 (FIG. 13), compound I-7 (FIG. 14), MK-8722 (FIG. 15), and PF-06409577 (FIG. 16). The THLE-2 cells were starved for 3 hours in high glucose DMEM without FBS, treated with the components noted above in DMEM without FBS/glucose for 1 hour, and glucose uptake was detected using a glucose uptake kit (Promega). The bars show (from left to right) concentrations of 100 μM, 33 μM, 11 μM, 3.7 μM, 1.23 μM, 0.41 μM, 0.14 μM, 0.045 μM, 0.015 μM, 0.005 μM, 0 μM, and insulin.
as §2, §3

Compound: O=c1[nH]c(-c2c[nH]c3cc(F)c(-c4ccc(C5(O)CCC5)cc4)c(F)c23)no1 [Compound I-11, 3-(4,6-difluoro-5-(4-(1-hydroxycyclobutyl)phenyl)-1H-indol-3-yl)-1,2,4-oxadiazol-5(4H)-one]
- AMPK isoform expression ([1]; HSKM cells): increased AMPKα2β1γ3 expression
- potency compared with reference compound MK-8722 (p-ACC, p-AMPK) ([1]; HSKM cells): more potency activity
- p-ACC and p-AMPK induction ([1]; HSKM cells, 1 hour): dosage-dependent manner
- p-AMPK, p-ACC, and p-Raptor expression ([1]; some high dosage groups, cell type not given): could induce
- toxicity compared to reference compounds MK-8722 and PF-06409577 (G6PD release) (HSKM cells): less toxicity
- % fat mass (high fat diet mice; 30 mg/kg p.o. QD, Day 14): 53.75 ± 0.88%
- area (cm^2; DEXA scan) (high fat diet mice; 30 mg/kg p.o. QD, Day 14): 13.26 ± 0.24 cm^2
- bone mineral content (BMC) (high fat diet mice; 30 mg/kg p.o. QD, Day 14): 1.04 ± 0.02
- bone mineral density (BMD) (high fat diet mice; 30 mg/kg p.o. QD, Day 14): 0.08 ± 0.00
- fat mass (gm) (high fat diet mice; 30 mg/kg p.o. QD, Day 14): 27.97 ± 0.67 gm
- lean+bone mineral content (BMC-gm) (high fat diet mice; 30 mg/kg p.o. QD, Day 14): 24.11 ± 0.71 gm
- total mass (gm) (high fat diet mice; 30 mg/kg p.o. QD, Day 14): 52.05 ± 1.04 gm
- % fat mass (high fat diet mice; 30 mg/kg p.o. QD, Day −3): 46.39 ± 0.83%
- area (cm^2; DEXA scan) (high fat diet mice; 30 mg/kg p.o. QD, Day −3): 12.61 ± 0.23 cm^2
- bone mineral content (BMC) (high fat diet mice; 30 mg/kg p.o. QD, Day −3): 1.01 ± 0.01
- bone mineral density (BMD) (high fat diet mice; 30 mg/kg p.o. QD, Day −3): 0.08 ± 0.00
- fat mass (gm) (high fat diet mice; 30 mg/kg p.o. QD, Day −3): 23.20 ± 0.60 gm
- lean+bone mineral content (BMC-gm) (high fat diet mice; 30 mg/kg p.o. QD, Day −3): 26.78 ± 0.50 gm
- total mass (gm) (high fat diet mice; 30 mg/kg p.o. QD, Day −3): 49.96 ± 0.75 gm
- % Body (percentage change in body weight) (high fat diet mice; 30 mg/kg p.o. QD): 1.40 ± 0.21%
- % fat mass (high fat diet mice; 50 mg/kg p.o. QD, Day 14): 50.05 ± 1.02%
- area (cm^2; DEXA scan) (high fat diet mice; 50 mg/kg p.o. QD, Day 14): 12.93 ± 0.23 cm^2
- bone mineral content (BMC) (high fat diet mice; 50 mg/kg p.o. QD, Day 14): 1.04 ± 0.02
- bone mineral density (BMD) (high fat diet mice; 50 mg/kg p.o. QD, Day 14): 0.08 ± 0.00
- fat mass (gm) (high fat diet mice; 50 mg/kg p.o. QD, Day 14): 25.95 ± 0.84 gm
- lean+bone mineral content (BMC-gm) (high fat diet mice; 50 mg/kg p.o. QD, Day 14): 25.83 ± 0.49 gm
- total mass (gm) (high fat diet mice; 50 mg/kg p.o. QD, Day 14): 51.78 ± 0.85 gm
- % fat mass (high fat diet mice; 50 mg/kg p.o. QD, Day −3): 46.37 ± 2.15%
- area (cm^2; DEXA scan) (high fat diet mice; 50 mg/kg p.o. QD, Day −3): 12.56 ± 0.30 cm^2
- bone mineral content (BMC) (high fat diet mice; 50 mg/kg p.o. QD, Day −3): 1.01 ± 0.02
- bone mineral density (BMD) (high fat diet mice; 50 mg/kg p.o. QD, Day −3): 0.08 ± 0.00
- fat mass (gm) (high fat diet mice; 50 mg/kg p.o. QD, Day −3): 23.44 ± 1.29 gm
- lean+bone mineral content (BMC-gm) (high fat diet mice; 50 mg/kg p.o. QD, Day −3): 26.97 ± 1.03 gm
- total mass (gm) (high fat diet mice; 50 mg/kg p.o. QD, Day −3): 50.40 ± 0.80 gm
- % Body (percentage change in body weight) (high fat diet mice; 50 mg/kg p.o. QD): −0.34 ± 0.73%
- clinical signs, morbidity, mortality (high fat diet mice; 30 and 50 mg/kg p.o. QD for 36 days): no observations of clinical signs or morbidity, and no mortality
- dose dependence of glucose uptake (printed: activates insulin) ([2]; HWP cells, subcutaneous upper arm of obese patient, 100 μM to 0.005 μM, 1 hour): dose dependent manner
- glucose uptake ([2]; human adipocyte cells / HWP-c cells, donor site not stated): induced glucose uptake; also recorded: dosage-dependent manner
- Liver (ng/mL), PK concentration, Average ([3]; 30 mg/kg): BLQ
- Liver (ng/mL), PK concentration, Average ([3]; 50 mg/kg): BLQ
- concentration at 4 h ([3]; adipose tissue, 30 mg/kg, read-out: Adipose tissue (ng/mL), PK concentration, Average): 19.5 ng/mL
- concentration at 4 h ([3]; adipose tissue, 50 mg/kg, read-out: Adipose tissue (ng/mL), PK concentration, Average): 11 ng/mL
- concentration at 4 h ([3]; plasma, 30 mg/kg, read-out: Plasma (ng/mL), PK concentration, Average): 244 ng/mL
- concentration at 4 h ([3]; plasma, 50 mg/kg, read-out: Plasma (ng/mL), PK concentration, Average): 197 ng/mL
- AMPK signaling activation [4]: dose-dependent manner
- glucose uptake [5]: induced glucose uptake; also recorded: dosage-dependent manner
